Test results: paper PMC3585395, “Material Basis of Chinese Herbal Formulas Explored by Combining Pharmacokinetics with Network Pharmacology” (PLoS ONE, 2013)
Like-named read-outs stand apart in the source and are kept apart here.

Assay: in vivo
Assay type: in vivo, Sprague–Dawley rats
Settings: for Detection in rat plasma after D7 administration: LC-MS/MS, sampling up to 24 h; for AUC / Cmax / MRT / Tmax / half-life / AUC(0-t) / CL/F / Vd/F: male, Sprague-Dawley, rat, in vivo; for Vd/F: read-out: Vz/F
Protocol: Male Sprague–Dawley rats (∼250 g) purchased from Sino-British Sippr/BK Lab Animal, Ltd. (Shanghai, China) were housed in air-conditioned animal quarters with alternating 12 h light/dark cycles at a room temperature of 22°C±2°C and a relative humidity of 50%±10%. Commercial rat chow and water were given ad libitum. The animal studies were approved by the Review Committee of Animal Care and Use at Longhua Hospital. The rats were fasted overnight (∼12 h) and had free access to water throughout the experimental period. Five rats were given a single oral dose of D7 at 4 mL/kg, which was designed based on the clinical dosage for human. Blood samples (∼150 µL) were collected via a jugular vein catheter from non-restrained, non-sedated animals into heparinized tubes before and at 0.083, 0.25, 0.5, 1, 2, 3, 4, 6, 8, 10, and 24 h after administration. After centrifugation at 4000×g for 10 min at 4°C, duplicates of 25 µL of the plasma samples were obtained and were immediately stored at −80°C until analysis. After the experiments, the rats were sacrificed with ether anesthesia.
For protein precipitation, 75 µL of MeOH were added to 25 µL of plasma samples. After vortexing for 2 min and centrifugation for 5 min at 13000×g at 4°C, 80 µL aliquots of the supernatant liquid were transferred into autosampler vials for LC-MS/MS analysis.
The LC-MS/MS system consisted of an Agilent HPLC 1200 series system and a CTC autosampler coupled with an API 4000 triple-quadrupole mass spectrometer equipped with a TurboIonSpray ion source. The LC-MS/MS system was controlled using the Analyst 1.4.2 software, which also acquired and processed the data.
LC separation was performed on a 5 µm Agel Luna C18 (50 mm×2.1 mm, i.d.) at room temperature with a 2 µm filter used before the analytical column. The LC mobile phase was H2O containing 0.1% formic acid (A) and MeOH (B) at a flow rate of 0.30 mL/min. A gradient elution program was used as following: 0→2.5 min, B% 60→90; 2.5→2.6 min, B% 90→60; and 2.6→4 min, B% 60→60. The injection volume was 10 µL and the temperature of the autosampler was set at 4°C to keep the samples stable during the analysis.
The tuning solutions (10 µg/mL) of the individual analytes were prepared by diluting the corresponding primary stock solutions with 50% MeOH. The tuning solutions were delivered at 5.0 µL/min using a syringe pump and combined through a PEEK tee-connector with the mobile phase delivered at 0.3 mL/min with the LC pump. The instrumental parameters of the MS spectrometers in positive ion ESI mode were optimized to achieve maximum ionization of the analyte molecules and the generation of characteristic fragment ions. […] The scan time for each pair was set to 50 ms. The operating parameters of the mass spectrometer included compound-dependent and source-dependent considerations. The optimized source-dependent parameters consisted of the flow rates of curtain gas, gas 1, gas 2, collision gas (CAD), capillary temperature (TEM), and ion spray voltage. The compound-dependent parameters for the test compounds included the declustering potential (DP), entrance potential (EP), collision energy (CE), and collision cell exit potential (CXP).
Standard curves, intra-batch accuracy, and precision for the quantification of the 15 compounds in the rat plasma samples were constructed similarly. The accuracy was measured as the difference between the nominal value and the measured value, expressed as a percentage of the nominal value. Precision was expressed as the coefficient of variation (CV), i.e., the standard deviation divided by the mean multiplied by 100.
The plasma concentration–time data for D7 were analyzed with the WinNonlin 5.2.1 software (Pharsight, Mountain View, CA, USA) using a non-compartmental model. The peak plasma concentration (C max) and the corresponding time (T max) were directly obtained from the concentration data.

[1] = SD rats, single oral D7 4 mL/kg
[2] = SD rats, single oral D7 4 mL/kg, plasma
[3] = SD rats, single oral D7 4 mL/kg, plasma, non-compartmental, read-out: T1/2 (converted)
[4] = SD rats, single oral D7 4 mL/kg, plasma, read-out: AUC0–24 h
[5] = SD rats, single oral D7 4 mL/kg, read-out: CL/F (converted)

Structure (SMILES)	Detection in rat plasma after D7 administration [1]	AUMCall [2]	AUMClast [2]	AUC [2]	Cmax [2]	MRT [2]	Tmax [2]	half-life [3]	AUC(0-t) [4]	CL/F [5]	Vd/F [1]	T1/2 (SD rats, single oral D7 4 mL/kg, plasma, non-compartmental)	half-life (po, SD rats, single oral D7 4 mL/kg, plasma, non-compartmental, read-out: T1/2 (converted))	AUC(0-t) (SD rats, single oral D7 4 mL/kg, plasma, read-out: AUClast)	CL/F (po)	half-life (po, T1/2)
CCN1CC2(COC)C(O)CC(OC)C34C5CC6(O)C(OC)C(O)C(O)(C5C6OC(=O)c5ccccc5)C(C(OC)C23)C14 (stereo not shown) [Benzoylaconitine, benzoylaconine]	not detected	–	–	–	–	–	–	–	–	–	–	–	–	–	–	–
COc1c2ccoc2cc2oc(=O)ccc12 [Bergapten, bergapten]	measureable	1270±958 h·h·ng/mL	924±716 h·h·ng/mL	158 ± 77.9 ng·h/mL	20.5 ± 7.22 ng/mL	5.65 ± 2.16 h	1 h	4.14 ± 0.7 h	143 ± 73.2 ng·h/mL	8.07 mL/min/kg	2.93 ± 1.57 L/kg	–	–	–	–	–
O=c1ccc2ccc3occc3c2o1 [Isopsoralen, isopsoralen]	measureable	168803±119110 h·h·ng/mL	150025±99963 h·h·ng/mL	21000 ± 12100 ng·h/mL	2240 ± 824 ng/mL	7.13 ± 0.66 h	6 h	3.53 ± 1.03 h	20400 ± 11500 ng·h/mL	1.1 mL/min/kg	0.308 ± 0.181 L/kg	–	–	–	–	–
O=c1ccc2cc3ccoc3cc2o1 [Psoralen, psoralen]	–	74305±51503 h·h·ng/mL	69918±49475 h·h·ng/mL	10200 ± 6000 ng·h/mL	929 ± 431 ng/mL	6.71 ± 0.79 h	6 h	3.18 ± 0.24 h	9980 ± 5960 ng·h/mL	1.39 mL/min/kg	0.384 ± 0.227 L/kg	–	–	–	–	–
CC(C)=CCc1cc2c(cc1O)oc(=O)c1c3ccc(O)cc3oc21 [Psoralidin, psoralidin]	measureable	2240±462 h·h·ng/mL	329±44 h·h·ng/mL	64.5 ± 8.46 ng·h/mL	2.57 ± 0.53 ng/mL	10.3 ± 0.39 h	0.5 h	–	–	2.88 mL/min/kg	5.87 ± 0.395 L/kg	23.7 ± 1.7 h	~24 h	31.9 ± 3.32 ng·h/mL	–	–
COc1c2occc2cc2ccc(=O)oc12 [Xanthotoxin, xanthotoxin]	–	1445±719 h·h·ng/mL	667±270 h·h·ng/mL	209 ± 89.5 ng·h/mL	31.7 ± 9.55 ng/mL	4.06 ± 0.41 h	1 h	–	162 ± 64.7 ng·h/mL	–	3.69 ± 1.52 L/kg	–	–	–	9.6 mL/min/kg	4.56 ± 0.71 h
CCN1C[C@]2(COC)[C@H](O)C[C@H](OC)[C@@]34[C@@H]5C[C@@]6(O)[C@H](OC(=O)c7ccccc7)[C@@H]5[C@@](OC(C)=O)([C@@H]([C@H](OC)[C@H]23)[C@@H]14)[C@@H](O)[C@@H]6OC [aconitine]	not detected	–	–	–	–	–	–	–	–	–	–	–	–	–	–	–
COC[C@@]12CC[C@H](OC)[C@]34C(C([C@H](OC)[C@H]13)[C@]1(OC(C)=O)[C@H]3[C@@H](OC(=O)c5ccccc5)[C@](O)(C[C@H]34)[C@@H](OC)[C@@H]1O)N(C)C2 [hypaconitine]	not detected	–	–	–	–	–	–	–	–	–	–	–	–	–	–	–
COCC12CN(C)C3C4C(OC)C1C3(C(OC)CC2O)C1CC2(O)C(OC)C(O)C4(OC(C)=O)C1C2OC(=O)c1ccccc1 (stereo not shown) [mesaconitine]	not detected	–	–	–	–	–	–	–	–	–	–	–	–	–	–	–
